The term IC50 denotes the concentration that gives 50% inhibition.

SMILES strings stand for the structures. ≈ marks a conversion by molar mass, not a printed value.

A short description of the first experiment: Inhibition of baker's yeast alpha-glucosidase using PNPG as substrate preincubated for 15 mins followed by substrate addition and measured after 15 mins. More on the design: species or system Saccharomyces cerevisiae.
Consider `Cc1cc(O)c2c(c1)C(C1c3cccc(O)c3C(=O)c3c(O)cc(C)cc31)c1cccc(O)c1C2=O` (stereo not given), for which the IC50 was determined as 60.09 µg/mL (≈ 126 µM).

For the compound `COc1ccc2c(c1O)C(=O)c1c(cc(C)c(O)c1OC)C2=O`, the IC50 was 183.91 µg/mL (≈ 585 µM).

Take `COc1cc(O)c2c(O)c3c(=O)oc(C)cc3cc2c1`: the IC50 turned out to be 80.01 µg/mL (≈ 294 µM).

The compound `COc1c(C)cc2c(c1O)C(=O)c1c(cc(O)c(OC)c1O)C2=O` returned an IC50 of 120.65 µg/mL (≈ 365 µM).

In the case of `COc1cc2c(c(O)c1OC)C(=O)c1c(cc(C)c(OC)c1OC)C2=O`, the half-inhibitory concentration (IC50) came to 164.81 µg/mL (≈ 460 µM).

Consider `C[C@H]1O[C@H](O[C@H]2[C@H](O)[C@@H](O)[C@@H](O[C@H]3[C@H](O)[C@@H](O)C(O)O[C@@H]3CO)O[C@@H]2CO)[C@H](O)[C@@H](O)[C@@H]1N[C@H]1C=C(CO)[C@@H](O)[C@H](O)[C@H]1O` (stereo not given in full) [ACARBOSE], for which the IC50 is below 5.05 µg/mL.

Consider `COc1c(O)cc2c(c1O)C(=O)c1c(cc(C)c(O)c1OC)C2=O` [AURANTIOOBTUSIN], for which the IC50 is 107.81 µg/mL (≈ 326 µM).

As to `Cc1cc(O)c2c(c1)C(=O)c1cccc(O)c1C2=O` [CHRYSOPHANOL], the IC50 came out at 50.6 µg/mL (≈ 199 µM).

Compound `COc1c(O)c(C)cc2c1C(=O)c1c(O)cccc1C2=O` [OBTUSIFOLIN] showed an IC50 of 144.64 µg/mL (≈ 509 µM).

`COc1cc(O)c2c(c1)C(=O)c1cc(C)cc(O)c1C2=O` [PHYSCION] gave an IC50 of 22.57 µg/mL (≈ 79.4 µM).

The compound `COc1cc(O)cc2c1C(=O)c1c(O)cc(C)cc1C2=O` [QUESTIN] returned an IC50 of 117.94 µg/mL (≈ 415 µM).

With `COc1cc(O)c2c(O)c3c(=O)cc(C)oc3cc2c1` [RUBROFUSARIN], the IC50 worked out at 162.04 µg/mL (≈ 595 µM).

The next experiment is described as follows: Antioxidant activity assessed as DPPH radical scavenging activity incubated for 30 mins under dark condition. Type of experiment: functional.
In the case of `COc1cc(O)c2c(O)c3c(=O)oc(C)cc3cc2c1`, the IC50 was 78.4 µg/mL (≈ 288 µM).

As to `O=C1O[C@H]([C@@H](O)CO)C(O)=C1O` [ASCORBIC ACID], the IC50 is 6.48 µg/mL (≈ 36.8 µM).

Consider `COc1cc(O)c2c(O)c3c(=O)cc(C)oc3cc2c1` [RUBROFUSARIN], for which the IC50 was 3.03 µg/mL (≈ 11.1 µM).

Source of the values: ChEMBL document CHEMBL4390706, “Chemical constituents from the seeds of Cassia obtusefolia and their in vitro α-glucosidase inhibitory and antioxidant activities” (Bioorg Med Chem Lett, 2019).
